What was measured:
[1] = test system: HEK-293 cells stably transfected with hERG potassium channels; test: "Wash" protocol thallium flux fluorescence assay; type: cell-based; details: range of dofetilide concentrations, slopes of normalized fluorescence 12-22 s, compared between indicators
Description: The wash protocol experiment was conducted as follows. To a 384-well, black-wall, clear bottom, poly-D-lysine coated plate, add 20 μl/well of α-MEM containing 10% fetal bovine serum and 1× glutaGRO (Cell Culture Medium) and a 1000 cell/μl suspension of HEK-293 cells stably transfected with hERG potassium channels (Cell Plate). Incubate the Cell Plate overnight in a 5% CO2 cell culture incubator at 37° C. Remove the Cell Culture Medium from the Cell Plate and replace it with 20 μl/well Hanks Balanced Salt Solution+20 mM HEPES pH 7.3 (Assay Buffer). Dissolve 25 μg of thallium ion indicator (also referred to as a “dye”) in 25 μl DMSO containing 7% (w/v) Pluronic F-127. Add 12.5 μl of the dissolved thallium ion indicator to 10 ml Assay Buffer (Dye Loading Solution). Add 20 μl/well of Dye Loading Solution to the Cell Plate. Incubate the Cell Plate containing Dye Loading Solution for 1 hour at room temperature. […] Analyze data representing the amplitude of the fluorescent signal for each well at each of the 120 time points acquired during the Data Acquisition Protocol using Microsoft Excel by first dividing the fluorescence values from each individual well at each time point by the fluorescent value for that well at the first time point (Normalized Fluorescence Values). Calculate slopes of the Normalized Fluorescence Values between the 12 second and 22 second time points (Slope Values). […]

[2] = test system: HEK-293 cells stably transfected with hERG potassium channels; test: "No-wash" protocol thallium flux fluorescence assay; type: cell-based; details: no-wash protocol with 1.25 mM probenecid; range of dofetilide concentrations; compared to FluoZin-2, AM
Description: The no-wash protocol was conducted as follows. To a 384-well, black-wall, clear bottom, poly-D-lysine coated plate, add 20 μl/well of α-MEM containing 10% fetal bovine serum and 1× glutaGRO (Cell Culture Medium) and a 1000 cell/μl suspension of HEK-293 cells stably transfected with hERG potassium channels (Cell Plate). Incubate the Cell Plate overnight in a 5% CO2 cell culture incubator at 37° C. Remove the Cell Culture Medium from the Cell Plate and replace it with 20 μl/well Hanks Balanced Salt Solution+20 mM HEPES pH 7.3+1.25 mM Probenecid (sodium salt) (NW-Assay Buffer). Dissolve 25 μg thallium ion indicator (also referred to herein as a “dye”) in 25 μl DMSO containing 7% (w/v) Pluronic F-127. Add 12.5 μl of the dissolved thallium ion indicator to 10 ml Probenecid Assay Buffer (NW-Dye Loading Solution). Add 20 μl/well of Dye Loading Solution to the Cell Plate. […] Analyze data representing the amplitude of the fluorescent signal for each well at each of the 120 time points acquired during the Data Acquisition Protocol using Microsoft Excel by first dividing the fluorescence values from each individual well at each time point by the fluorescent value for that well at the first time point (Normalized Fluorescence Values). Calculate slopes of the Normalized Fluorescence Values between the 12 second and 22 second time points (Slope Values). […]

Row | Compound | fluorescence results (indicator performance, FIG. 1) [1] | normalized signal amplitude (FIG. 2) [2]
1 | COc1cc(NC(=O)c2ccc3c(c2)C(=O)OC32c3cc(F)c(OC(C)=O)cc3Oc3cc(OC(C)=O)c(F)cc32)ccc1N(CC(=O)OCOC(C)=O)CC(=O)OCOC(C)=O [FluoZin-2, AM, reference compound] | essentially indistinguishable | 
2 | COc1cc(NC(=O)c2ccc3c(c2)C(=O)OC32c3ccc(OC(C)=O)cc3Oc3cc(OC(C)=O)ccc32)ccc1N(CC(=O)OCOC(C)=O)CC(=O)OCOC(C)=O [Example 1, bis(acetoxymethyl) 2,2′-((4-(3′,6′-diacetoxy-3-oxo-3H-spiro[isobenzofuran-1,9′-xanthen]-5-ylcarboxamido)-2-methoxyphenyl)azanediyl)diacetate] | essentially indistinguishable | substantial and unexpected improvement in normalized signal amplitude over FluoZin-2, AM

Reference: patent US9103791B1, “Thallium fluorescent ion indicator and assay” (Vanderbilt University, priority 2012, dated 2015)
